Laboratory results published in publication PMC7784776 (ACS chemical biology, 2020).
pIC50: −log10 of the molar value. ≈ marks a conversion by molar mass, not a printed value. Where “and” joins values, the source holds several entries; their conditions need not be identical. Identical values can stand only once. Like-named read-outs stand apart in the source and are kept apart here.

How the values were obtained:
[1] = test system: B. subtilis PBPs; test: PBP inhibition/selectivity profile across all detected PBPs; assay type: cell-based, Bacillus subtilis; settings: at MIC
[2] = biological target: T1, PBP3 (Bacillus subtilis, UniProt P42971); test: Fluorescent whole cell β-lactam titration with Boc-FL readout, SDS-PAGE; assay type: cell-based; settings: for pIC50: average of two experiments
T1 sequence (P42971 whole entry): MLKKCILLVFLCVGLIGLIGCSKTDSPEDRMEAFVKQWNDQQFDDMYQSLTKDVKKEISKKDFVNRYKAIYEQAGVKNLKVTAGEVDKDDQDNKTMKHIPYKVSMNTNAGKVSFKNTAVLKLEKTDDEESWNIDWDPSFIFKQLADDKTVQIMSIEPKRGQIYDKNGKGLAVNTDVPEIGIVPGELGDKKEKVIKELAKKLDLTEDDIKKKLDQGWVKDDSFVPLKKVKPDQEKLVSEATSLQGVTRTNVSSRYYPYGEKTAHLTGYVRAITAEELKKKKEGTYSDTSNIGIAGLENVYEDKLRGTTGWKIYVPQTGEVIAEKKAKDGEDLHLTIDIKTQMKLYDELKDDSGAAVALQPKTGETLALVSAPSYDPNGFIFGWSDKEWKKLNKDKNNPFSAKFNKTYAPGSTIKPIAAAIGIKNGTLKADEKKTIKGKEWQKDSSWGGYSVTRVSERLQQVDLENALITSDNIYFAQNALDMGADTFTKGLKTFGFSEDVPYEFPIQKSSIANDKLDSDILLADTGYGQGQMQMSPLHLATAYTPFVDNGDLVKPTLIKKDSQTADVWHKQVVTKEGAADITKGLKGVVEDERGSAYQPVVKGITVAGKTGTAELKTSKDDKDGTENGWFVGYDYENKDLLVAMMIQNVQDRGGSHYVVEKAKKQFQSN

[3] = biological target: PBP4 (Bacillus subtilis, UniProt P40750); test: as above; assay type: cell-based
Chain of PBP4 (P40750 22-624): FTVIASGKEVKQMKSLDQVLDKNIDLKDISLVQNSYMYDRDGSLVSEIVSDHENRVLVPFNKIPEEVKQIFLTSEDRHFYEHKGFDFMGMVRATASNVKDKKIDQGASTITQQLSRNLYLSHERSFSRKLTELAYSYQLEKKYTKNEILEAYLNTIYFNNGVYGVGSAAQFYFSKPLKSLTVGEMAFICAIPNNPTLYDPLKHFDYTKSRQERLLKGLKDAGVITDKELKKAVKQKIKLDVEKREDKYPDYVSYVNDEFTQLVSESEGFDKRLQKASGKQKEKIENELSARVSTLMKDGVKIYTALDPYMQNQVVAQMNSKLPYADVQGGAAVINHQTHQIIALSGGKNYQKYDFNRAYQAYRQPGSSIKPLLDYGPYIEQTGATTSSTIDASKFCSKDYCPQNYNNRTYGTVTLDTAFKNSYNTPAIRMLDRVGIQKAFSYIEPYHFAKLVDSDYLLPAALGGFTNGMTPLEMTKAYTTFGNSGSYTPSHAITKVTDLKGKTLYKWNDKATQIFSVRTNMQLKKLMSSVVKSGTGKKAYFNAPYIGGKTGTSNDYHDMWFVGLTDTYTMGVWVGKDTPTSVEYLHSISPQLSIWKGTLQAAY

[4] = biological target: PBP2b/H (Bacillus subtilis, UniProt Q07868); test: as above; assay type: cell-based; settings: for inhibition of PBP2b at MIC: at growth inhibitory concentration, substantial inhibition (>50%) not the case
Chain of PBP2b/H (Q07868 whole entry): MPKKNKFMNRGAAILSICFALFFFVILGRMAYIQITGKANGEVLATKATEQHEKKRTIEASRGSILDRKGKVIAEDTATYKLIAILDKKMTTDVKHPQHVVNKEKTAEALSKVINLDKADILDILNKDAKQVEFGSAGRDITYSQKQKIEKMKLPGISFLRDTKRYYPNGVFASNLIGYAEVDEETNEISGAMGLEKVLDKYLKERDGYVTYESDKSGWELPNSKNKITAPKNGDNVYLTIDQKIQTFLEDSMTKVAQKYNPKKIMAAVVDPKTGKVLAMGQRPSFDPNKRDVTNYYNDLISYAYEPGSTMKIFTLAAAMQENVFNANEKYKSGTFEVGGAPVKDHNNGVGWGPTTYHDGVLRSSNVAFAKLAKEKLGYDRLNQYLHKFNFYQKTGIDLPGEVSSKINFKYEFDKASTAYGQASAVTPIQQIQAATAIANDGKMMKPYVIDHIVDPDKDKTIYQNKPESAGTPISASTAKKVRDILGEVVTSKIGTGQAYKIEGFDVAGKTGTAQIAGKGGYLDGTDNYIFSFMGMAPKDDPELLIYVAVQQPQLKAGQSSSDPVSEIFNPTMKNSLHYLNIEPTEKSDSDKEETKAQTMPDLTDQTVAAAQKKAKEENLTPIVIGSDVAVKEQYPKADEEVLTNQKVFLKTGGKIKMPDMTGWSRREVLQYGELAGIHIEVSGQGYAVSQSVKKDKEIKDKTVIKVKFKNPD

[5] = biological target: PBP2a (Bacillus subtilis, UniProt P54488); test: as above; assay type: cell-based
Chain of PBP2a (P54488 whole entry): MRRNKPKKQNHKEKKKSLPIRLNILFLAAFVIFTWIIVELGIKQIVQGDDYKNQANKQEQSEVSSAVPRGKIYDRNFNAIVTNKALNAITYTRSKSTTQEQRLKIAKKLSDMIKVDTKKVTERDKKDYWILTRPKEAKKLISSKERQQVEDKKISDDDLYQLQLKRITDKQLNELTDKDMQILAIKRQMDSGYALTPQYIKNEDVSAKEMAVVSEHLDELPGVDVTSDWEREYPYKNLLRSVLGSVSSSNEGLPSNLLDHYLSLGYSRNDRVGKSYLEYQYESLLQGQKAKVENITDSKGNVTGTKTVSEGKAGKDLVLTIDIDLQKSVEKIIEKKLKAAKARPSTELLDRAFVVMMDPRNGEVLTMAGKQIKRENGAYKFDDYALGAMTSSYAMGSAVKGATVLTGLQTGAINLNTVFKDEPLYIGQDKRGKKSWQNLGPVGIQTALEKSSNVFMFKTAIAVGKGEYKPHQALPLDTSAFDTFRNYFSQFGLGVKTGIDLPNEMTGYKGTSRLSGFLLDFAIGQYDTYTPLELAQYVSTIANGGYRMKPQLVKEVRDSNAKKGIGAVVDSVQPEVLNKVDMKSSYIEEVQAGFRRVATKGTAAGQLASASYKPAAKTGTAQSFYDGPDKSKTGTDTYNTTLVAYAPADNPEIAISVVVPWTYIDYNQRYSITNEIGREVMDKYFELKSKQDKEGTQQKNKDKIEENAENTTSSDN

[6] = test system: B. subtilis PY79; test: Minimum inhibitory concentration; assay type: cell-based; settings: Bacillus subtilis
[7] = biological target: PBP1a/1b (Bacillus subtilis, UniProt P39793); test: Fluorescent whole cell β-lactam titration with Boc-FL readout, SDS-PAGE; assay type: cell-based
Chain of PBP1a/1b (P39793 77-662): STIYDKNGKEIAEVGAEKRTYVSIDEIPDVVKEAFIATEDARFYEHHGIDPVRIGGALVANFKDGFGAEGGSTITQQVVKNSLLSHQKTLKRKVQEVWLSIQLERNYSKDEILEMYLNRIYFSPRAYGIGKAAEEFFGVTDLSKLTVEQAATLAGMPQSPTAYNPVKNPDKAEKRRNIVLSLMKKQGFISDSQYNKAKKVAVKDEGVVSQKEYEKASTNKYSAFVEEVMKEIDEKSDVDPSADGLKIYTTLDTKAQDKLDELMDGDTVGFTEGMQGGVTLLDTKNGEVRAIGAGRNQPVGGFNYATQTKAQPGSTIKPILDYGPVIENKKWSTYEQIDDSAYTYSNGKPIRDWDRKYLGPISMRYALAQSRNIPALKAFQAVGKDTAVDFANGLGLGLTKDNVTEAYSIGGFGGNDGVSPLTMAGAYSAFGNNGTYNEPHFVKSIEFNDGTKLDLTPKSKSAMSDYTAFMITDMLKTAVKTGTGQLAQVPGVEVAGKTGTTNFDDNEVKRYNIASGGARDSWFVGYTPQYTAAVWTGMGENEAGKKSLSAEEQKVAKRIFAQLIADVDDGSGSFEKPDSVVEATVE

[8] = biological target: PBP5 (Bacillus subtilis, UniProt P08750); test: as above; assay type: cell-based
Chain of PBP5 (P08750 32-443): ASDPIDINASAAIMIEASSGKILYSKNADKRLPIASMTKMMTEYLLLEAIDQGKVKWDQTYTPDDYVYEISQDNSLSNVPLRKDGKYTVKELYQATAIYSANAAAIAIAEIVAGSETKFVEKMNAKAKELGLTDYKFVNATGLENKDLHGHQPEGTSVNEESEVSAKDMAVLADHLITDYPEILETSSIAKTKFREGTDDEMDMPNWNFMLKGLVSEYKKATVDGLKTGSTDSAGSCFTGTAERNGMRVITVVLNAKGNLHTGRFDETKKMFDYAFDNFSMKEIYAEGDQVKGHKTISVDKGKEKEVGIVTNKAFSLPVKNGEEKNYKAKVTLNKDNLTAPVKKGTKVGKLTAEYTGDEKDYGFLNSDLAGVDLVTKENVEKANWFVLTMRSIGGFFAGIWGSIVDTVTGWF

[9] = test system: B. subtilis PBPs; test: β-Lactam titration of DK694; assay type: cell-based, Bacillus subtilis; settings: DK694 (ΔpbpH) cells
[10] = test system: B. subtilis PBPs; test: PBP activity profile after growth with sub-MIC meropenem; assay type: cell-based, Bacillus subtilis; settings: 0.01 μg/mL, 2 h
[11] = biological target: T1, PBP3; test: Fluorescence imaging of PBP3 activity with MEM-BODIPY FL in live DK654; assay type: cell-based; settings: pretreatment 10 μg/mL
[12] = IC50 PBP3, B. subtilis PY79 whole cells
[13] = read-out: IC50 PBP2a, B. subtilis PY79 whole cells, average of two experiments

| SMILES | PBP inhibition at growth inhibitory concentrations [1] | pIC50 [2, 12] | pIC50 [3] | pIC50 [4] | inhibition of PBP2b at MIC [4] | pIC50 [5] | MIC [6] | pIC50 [7] | pIC50 [8] | IC50 values for individual PBPs in DK694 (ΔpbpH) versus wild type [9] | pIC50 [5, 13] | pIC50 ([2]; read-out: IC50 PBP3, B. subtilis PY79 whole cells) | IC50 ([2]; 50% inhibition of PBP3, concentration in μM, corresponding to 0.26 μg/mL) | concentration for complete inhibition of PBP3 ([2]; B. subtilis whole cells) | concentration for complete inhibition of PBP3 ([2]; corresponding to 1 μg/mL) | PBP inhibition after growth with sub-MIC concentration [10] | MEM-BODIPY FL fluorescent signal upon pretreatment of the cells [11] | concentration for selective and complete inhibition of PBP5 ([8]; B. subtilis whole cells) | concentration for selective and complete inhibition of PBP5 ([8]; corresponding to ~1 μg/mL) |
| --- | --- | --- | --- | --- | --- | --- | --- | --- | --- | --- | --- | --- | --- | --- | --- | --- | --- | --- | --- |
| CC1(C)S[C@@H]2[C@H](N)C(=O)N2[C@H]1C(=O)O [6-APA, 6-Aminopenicillanic acid] | failed to significantly block any PBPs | < 2.33 | < 2.33 | < 2.33 | ≤ 50% | 3.29 | 8 to 256 µg/mL (≈ 37 to 1180 µM) | < 2.33 | 4.72 | – | – | – | – | – | – | – | – | – | – |
| CC1(C)S[C@@H]2[C@H](NC(=O)[C@H](N)c3ccc(O)cc3)C(=O)N2[C@H]1C(=O)O [amoxicillin] | – | 6.42 | 6.68 | 6.62 | – | 6.69 | 4 µg/mL (≈ 10.9 µM) | 8.56 | 5.52 | – | – | – | – | – | – | – | – | – | – |
| CC1(C)S[C@@H]2[C@H](NC(=O)[C@H](N)c3ccccc3)C(=O)N2[C@H]1C(=O)O [ampicillin] | – | 6.92 | 7.98 | 7.57 | – | 7.99 | 8 µg/mL (≈ 22.9 µM) | > 7.54 | 6.46 | comparable and within twofold in most cases | – | – | – | – | – | – | – | – | – |
| C[C@H]1[C@H](NC(=O)/C(=N\OC(C)(C)C(=O)O)c2csc(N)n2)C(=O)N1S(=O)(=O)O [aztreonam] | – | – | – | – | ≤ 50% | – | 16 µg/mL (≈ 36.7 µM) | – | – | – | – | – | – | – | – | – | – | – | – |
| CO/N=C(\C(=O)N[C@@H]1C(=O)N2C(C(=O)O)=C(COC(C)=O)CS[C@H]12)c1csc(N)n1 [cefotaxime] | – | 5.66 | > 6.66 | > 6.66 | – | – | 0.0625 µg/mL (≈ 0.137 µM) | 8.54 | < 2.66 | – | > 3.66 | – | – | – | – | – | – | – | – |
| CO[C@@]1(NC(=O)Cc2cccs2)C(=O)N2C(C(=O)O)=C(COC(N)=O)CS[C@@H]21 [cefoxitin] | – | 5.61 | 7.48 | 6.35 | – | 5.77 | 1 µg/mL (≈ 2.34 µM) | 7.48 | 6.35 | – | – | – | – | – | – | – | – | – | – |
| NC(=O)c1cc[n+](CC2=C(C(=O)O)N3C(=O)[C@@H](NC(=O)[C@@H](c4ccccc4)S(=O)(=O)[O-])[C@H]3SC2)cc1 [cefsulodin] | – | 3.58 | 6.65 | 5.91 | – | 4.15 | 8 µg/mL (≈ 15 µM) | 7.74 | < 2.73 | – | – | – | – | – | – | – | – | – | – |
| CO/N=C(\C(=O)N[C@@H]1C(=O)N2C(C(=O)O)=C(CSc3nc(=O)c(=O)[nH]n3C)CS[C@H]12)c1csc(N)n1 [ceftriaxone] | – | 5.33 | 7.44 | 6.92 | – | 4.53 | 0.25 µg/mL (≈ 0.451 µM) | 7.87 | < 2.74 | – | – | – | – | – | – | – | – | – | – |
| CO/N=C(\C(=O)N[C@@H]1C(=O)N2C(C(=O)O)=C(COC(N)=O)CS[C@H]12)c1ccco1 [cefuroxime] | – | 4.28 | 7.45 | 6.72 | – | 4.18 | 0.125 µg/mL (≈ 0.295 µM) | 8.37 | < 2.63 | – | – | – | – | – | – | – | – | – | – |
| CC1=C(C(=O)O)N2C(=O)[C@@H](NC(=O)[C@H](N)c3ccccc3)[C@H]2SC1 [cephalexin] | – | 4.16 | 3.14 | > 6.54 | – | > 6.54 | 0.5 µg/mL (≈ 1.44 µM) | < 2.54 | < 2.54 | – | – | – | – | – | – | – | – | – | – |
| CC(=O)OCC1=C(C(=O)O)N2C(=O)[C@@H](NC(=O)Cc3cccs3)[C@H]2SC1 [cephalothin] | – | 4.53 | 7.82 | 7.72 | – | 7.79 | 0.0312 µg/mL (≈ 0.0788 µM) | 8.18 | 3.56 | – | – | – | – | – | – | – | – | – | – |
| Cc1onc(-c2ccccc2Cl)c1C(=O)N[C@@H]1C(=O)N2[C@@H]1SC(C)(C)[C@@H]2C(=O)O [cloxacillin] | – | – | 7.30 | 6.53 | ≤ 50% | 6.69 | 0.125 µg/mL (≈ 0.287 µM) | < 2.64 | < 2.64 | – | – | > 2.64 | – | – | – | – | – | – | – |
| C[C@@H](O)[C@H]1C(=O)N2C(C(=O)O)=C(S[C@@H]3CN[C@H](CNS(N)(=O)=O)C3)[C@H](C)[C@H]12 [doripenem] | – | 6.54 | < 2.62 | – | – | – | 0.0625 µg/mL (≈ 0.149 µM) | < 2.62 | 6.26 | – | > 2.62 | – | – | – | – | – | – | – | – |
| C[C@@H](O)[C@H]1C(=O)N2C(C(=O)O)=C([C@H]3CCCO3)S[C@H]12 [faropenem] | – | 5.48 | 7.50 | 7.75 | – | 7.41 | 0.125 µg/mL (≈ 0.438 µM) | 8.68 | 6.15 | – | – | – | – | – | – | – | – | – | – |
| CC1(C)S[C@@H]2[C@H](/N=C/N3CCCCCC3)C(=O)N2[C@H]1C(=O)O [mecillinam] | – | 3.56 | < 2.51 | 5.48 | – | 4.69 | 16 µg/mL (≈ 49.2 µM) | < 2.51 | < 2.51 | – | – | – | – | – | – | – | – | – | – |
| C[C@@H](O)[C@H]1C(=O)N2C(C(=O)O)=C(S[C@@H]3CN[C@H](C(=O)N(C)C)C3)[C@H](C)[C@H]12 [meropenem] | – | 6.17 | ≤ 2.58 | – | ≤ 50% | – | 0.0625 µg/mL (≈ 0.163 µM) | < 2.58 | 6.24 | – | > 2.58 | – | 0.67 µM | ~ 1 μg/mL and 1 μg/mL | 2.6 µM | No significant inhibition | significantly reduced | ~ 1 μg/mL | 2.6 µM |
| COc1cccc(OC)c1C(=O)N[C@@H]1C(=O)N2[C@@H]1SC(C)(C)[C@@H]2C(=O)O [methicillin] | – | 4.63 | 6.54 | > 6.58 | – | > 7.58 | 0.25 µg/mL (≈ 0.657 µM) | < 2.58 | 3.41 | comparable and within twofold in most cases | – | – | – | – | – | – | – | – | – |
| Cc1onc(-c2ccccc2)c1C(=O)N[C@@H]1C(=O)N2[C@@H]1SC(C)(C)[C@@H]2C(=O)O [oxacillin] | – | 3.78 | > 6.60 | 6.82 | ≤ 50% | 6.86 | 0.25 µg/mL (≈ 0.623 µM) | < 2.60 | < 2.60 | – | – | – | – | – | – | – | – | – | – |
| CC1(C)S[C@@H]2[C@H](NC(=O)Cc3ccccc3)C(=O)N2[C@H]1C(=O)O [penicillin G] | – | 5.38 | 7.57 | 7.25 | – | 7.89 | 16 µg/mL (≈ 47.8 µM) | < 2.52 | – | – | – | – | – | – | – | – | – | – | – |
| CC1(C)S[C@@H]2[C@H](NC(=O)COc3ccccc3)C(=O)N2[C@H]1C(=O)O [penicillin V] | – | 5.23 | > 7.54 | > 7.54 | – | 8.92 | 32 µg/mL (≈ 91.3 µM) | > 7.54 | 5.75 | – | – | – | – | – | – | – | – | – | – |
| CCN1CCN(C(=O)N[C@@H](C(=O)N[C@@H]2C(=O)N3[C@@H]2SC(C)(C)[C@@H]3C(=O)O)c2ccccc2)C(=O)C1=O [piperacillin] | – | 5.44 | 7.24 | > 5.71 | – | 6.51 | 64 µg/mL (≈ 124 µM) | 8.63 | 4.66 | – | – | – | – | – | – | – | – | – | – |
